Measured values as given in publication PMC5473904, “Epigenetic and antitumor effects of platinum(IV)-octanoato conjugates” (Scientific Reports, 2017).

What was measured:
[1] = parameters: method as in PMID 25888926; conditions: valproato complexes; cited from earlier work
[2] = test system: Lewis lung carcinoma (LLC); assay: In vivo antitumor activity in Lewis lung carcinoma; conditions: LLC in C57BL mice; for Average tumor weight (mean ± SD): 20 mg kg^−1 daily orally day 7–14, day 15; for Inhibition of tumor growth: 20 mg kg^−1 daily orally day 7–14, day 15, referred to control animals
Experimental: Xenograft LLC tumors were grown in C57BL mice that were subsequently treated with […] of either Pt(IV) complex. Pt(IV) prodrugs were administered by oral gavage by taking advantage of their excellent stability, enabling in vivo oral formulation making platinum therapy safer lessening side effects and partially overcoming resistance to platinum(II) drugs, [35]. The schedule of Pt(IV) prodrug administration in vivo was initially determined by assessing the total dose that could be injected without undue toxicity in nontumor-bearing C57BL mice. From day 7 after tumor inoculation, when tumors became visible, tumor-bearing mice received daily doses of the Pt(IV) derivatives (20 mg kg^−1, by oral gavage).
The LLC cell line was purchased from ECACC, United Kingdom. The LLC cell line was maintained in DMEM (Euroclone) supplemented with 10% heat-inactivated fetal bovine serum (FBS; Euroclone), 10 mM L-glutamine, 100 U mL^−1 penicillin, and 100 μg mL^−1 streptomycin in a 5% CO2 air incubator at 37 °C. The LLC was implanted intramuscularly (im) as a 2 × 10^6 cell inoculum into the right hind leg of 8-week old male and female C57BL mice (24 ± 3 g body weight). […] At day 15, animals were sacrificed, the legs were amputated at the proximal end of the femur, and the inhibition of tumor growth was determined according to the difference in weight of the tumor-bearing leg, and the healthy leg of the animals expressed as a percentage referred to the control animals. Body weight was measured every two days and was taken as a parameter for systemic toxicity. All the values are the means ± SD of not less than three measurements.

[3] = test system: HCT-116 human colorectal carcinoma cells; assay: MTT cytotoxicity, 72 h; assay type: cell-based; conditions: MTT, 72 h, platinum complexes and decitabine
Experimental: (§1) Cytotoxic activity of the compounds tested in the present work was screened on the panel of malignant and nonmalignant cell lines using the colorimetric MTT assay and 72 h of drug incubation period.
(§2) Cell death was evaluated using a system based on the tetrazolium compound MTT [3-(4,5-dimethyl-2-thiazolyl)-2,5-diphenyl-2H-tetrazolium bromide]. The cells were seeded in 96-well tissue culture plates at a density of 10^4 A2780cisR, LNCaP, HSF cells/well, 3 × 10^3 CHO-K1 or 4 × 10^3 MCF7, HCT-116 and MRC5 pd30 cells/well in 100 μL of medium. After overnight incubation (16 h), the cells were treated with the compounds in a final volume of 200 μL/well. After additional 72 h, 10 μL of a freshly diluted MTT solution (2.5 mg mL^−1) was added to each well, and the plate was incubated at 37 °C in a humidified 5% CO2 atmosphere for 4 h. At the end of the incubation period, the medium was removed, and the formazan product was dissolved in 100 μL of DMSO. The cell viability was evaluated by measurement of the absorbance at 570 nm, using an Absorbance Reader SUNRISE TECAN SCHOELLER. IC50 values were calculated from curves constructed by plotting cell survival (%) versus drug concentration (μM). All experiments were made in triplicate. The reading values were converted to the percentage of control (% cell survival). Cytotoxic effects were expressed as IC50.

[4] = test system: DNA methylation in HCT-116 cells; assay: DNA methylation analysis (Imprint methylated DNA quantification kit); assay type: cell-based, human; conditions: HCT-116, 1 µM
Experimental: Human colon adenocarcinoma cells HCT-116 were chosen as the model cellular system suitable for DNA methylation analysis because: (i) this human colorectal cancer cell line has been used as a prototypic model for analyses of the genetic basis of cancer, and the role of epigenetic changes in tumorigenesis; (ii) they have a propensity to both global DNA hypomethylation and to silence genes through promoter focal hypermethylation, [21]. HCT-116 cells were treated with the compounds at the concentrations indicated in Fig. 4A for 24 or 72 h and DNA was isolated for the complete methylation analysis as described in the experimental section. Decitabine (5-aza-2′-deoxycytidine), a hypomethylating agent which hypomethylates DNA by inhibiting DNMT, was used in these experiments as a […]. The IC50 values found for this agent in HCT-116 cells (the drug-treatment period was 72 h) was (7.5 ± 0.3) µM (Table 1).
Figure 4 Analysis of DNA methylation. (A) DNA was isolated from HCT-116 cells after the exposure to the agents at the concentrations indicated in the graph for 24 or 72 h. The levels of DNA methylation in the control was taken as 100%. The bars represent mean values from three independent experiments each performed in octuplicate. The error bars are the SDs. (B) DNMT activity in colon carcinoma cells HCT-116 treated for 24 h with the compounds tested in the present work. The DNMT activity in the control, untreated cells was taken as 100%. Error bars are the SDs and the stars at the top of bars denote a significant difference from the control with (*p < 0.05; **p < […]), calculated using […] student’s t-test. The bars represent mean values from three independent experiments, each performed in quadruplicate.
Human colon carcinoma cells (HCT-116) were seeded at the density 1.5 × 10^6 cells/dish. […] The DNA content in each sample was determined by UV spectrophotometry. DNA (200 ng) from the samples was loaded to the Imprint methylated DNA quantification kit (Sigma-Aldrich, USA). The level of methylated DNA was proportional to the absorbance measured at 450 nm.

[5] = test system: MRC-5 (PD30) human fetal lung fibroblasts; assay: MTT cytotoxicity, 72 h; assay type: cell-based; conditions: platinum complexes
Experimental: as §1, §2

[6] = test system: CHO-K1 Chinese hamster ovary cells; assay: MTT cytotoxicity, 72 h; assay type: cell-based; conditions: platinum complexes
Experimental: as §1, §2

[7] = test system: MCF-7 human breast cancer cells; assay: MTT cytotoxicity, 72 h; assay type: cell-based; conditions: platinum complexes
Experimental: as §1, §2

[8] = test system: HSF human primary skin fibroblasts; assay: MTT cytotoxicity, 72 h; assay type: cell-based; conditions: platinum complexes
Experimental: as §1, §2

[9] = test system: LNCaP human prostate adenocarcinoma cells; assay: MTT cytotoxicity, 72 h; assay type: cell-based; conditions: platinum complexes
Experimental: as §1, §2

[10] = test system: A2780cisR human ovarian carcinoma cells; assay: MTT cytotoxicity, 72 h; assay type: cell-based
Experimental: as §1, §2

[11] = test system: A2780 cells; assay: Cellular platinum accumulation/distribution by ICP-MS; assay type: cell-based, human; conditions: 0.35 µM
Experimental: (§3) Cellular concentrations of platinum were determined by inductively coupled plasma mass spectrometry (ICP-MS) after 24 h of exposure to the complexes at the concentration of 0.35 µM.
(§4) Cellular uptake studies were also carried out to measure the accumulation of platinum species in cytosol and nucleus. […] The platinum levels in each pool were measured by ICP-MS. The extent of accumulation of both OA conjugated Pt(IV) prodrugs into the cytosol and nucleus fractions was markedly higher than that of cisplatin or Pt(IV)diAc.
(§5) The cells were seeded in 150 cm^2 culture flasks at a density 1 × 10^7 cells/flask (67 000 cells/cm^2). After 48-h incubation, the cells were treated with the compounds (0.35 μM) for 24 h. The attached cells were washed twice with PBS (4 °C). Seventy-five percent of cells were used for analysis of platinum bound to DNA, remaining 25% were used for estimations of cellular accumulation of platinum. Cell pellets were digested by a high-pressure microwave digestion system (MARS5, CEM) with HCl to give a fully homogenized solution, and final platinum content was determined by ICP-MS. The analysis with the aid of ICP-MS was performed using Agilent 7500 (Agilent, Japan) or Thermo Optek X Series.
(§6) A2780 cells were seeded in 100 mm tissue culture dishes (3 × 10^6 cells) and grown for 48 h to 80–90% confluence. Cells were harvested after 24 h of treatment. Concretely, the dishes were washed two times with ice-cold PBS and the cells scraped into tubes and centrifuged for 10 min at 0 °C (200 g). The pellets were resuspended in the lysis buffer [Tris·HCl (10 mM, pH 8.0), KCl (60 mM), EDTA (1.2 mM), DTT (1 mM), phenylmethanesulfonyl fluoride (PMSF, 0.1 mM), NP-40 (0.04%)] for 10 min on ice and centrifuged for 4 min at 0 °C (800 g). Cytosolic fraction was separated for platinum ICP-MS analysis, and protein concentration was determined by Bradford assay. The pellets were rinsed with the above lysis buffer without PMSF and NP-40 and centrifuged for another 4 min at 0 °C (300 g). The pellets were resuspended in 50 µL nuclear extraction buffer [Tris·HCl (20 mM, pH 8.0), NaCl (420 mM), MgCl2 (0.7 mM), EDTA (0.25 mM), glycerol (25%)] and incubated for 30 min at 4 °C, continuously mixed on end-over-end roller, and then centrifuged for 15 min at 0 °C (13000 g). Protein concentration in nuclear extracts was determined by the Bradford assay, and stored at −80 °C until analysis.

[12] = test system: HCT-116 cells; assay: as above; assay type: cell-based, human; conditions: HCT-116, 24 h exposure, 0.35 µM
Experimental: as §3, §4, §5, §6

[13] = test system: DNA from A2780 cells; assay: Platinum content on DNA isolated from treated cells (ICP-MS); assay type: cell-based, human; conditions: A2780, 24 h, 0.35 µM
Experimental: (§7) As for antitumor cisplatin and its direct derivatives, DNA is believed to be the target also for Pt(IV) prodrugs examined in the present work.
(§8) The cells were seeded in 150 cm^2 culture flasks at a density 1 × 10^7 cells/flask (67 000 cells/cm^2). After 48-h incubation, the cells were treated with the compounds (0.35 μM) for 24 h. The attached cells were washed twice with PBS (4 °C). As mentioned in the preceding paragraph, 75% of cells were used for analysis of platinum bound to DNA, remaining 25% were used for estimations of cellular accumulation of platinum. Cells were then lysed in DNAzol (DNAzol® genomic DNA isolation reagent, MRC) supplemented with RNase A (100 μg mL^−1). The genomic DNA was precipitated from the lysate with ethanol, dried and resuspended in water. The DNA content in each sample was determined by UV spectrophotometry. The DNA samples were digested in the presence of hydrochloric acid (11 M) using high-pressure microwave mineralization system (MARS5, CEM). The platinum content was determined by ICP-MS. Experiments were performed in triplicate and the values are the means ± SD.

[14] = test system: DNA from HCT-116 cells; assay: as above; assay type: cell-based, human; conditions: HCT-116, 24 h, 0.35 µM
Experimental: as §7, §8

[15] = test system: HCT-116 cells; assay: Cellular platinum accumulation/distribution by ICP-MS; assay type: cell-based, human; conditions: HCT-116, 24 h, 0.35 µM
[16] = test system: A2780 human ovarian carcinoma cells; assay: MTT cytotoxicity, 72 h; assay type: cell-based; conditions: MTT, 72 h, platinum complexes
[17] = test system: PNT1a; assay: MTT cytotoxicity, 72 h; assay type: cell-based; conditions: platinum complexes
[18] = rough estimate from Tables 2 and 3

## CCCC(CCC)C(=O)[O][Pt]([NH2])([NH2])([Cl])([Cl])[O]C(C)=O [Pt(IV)AcVPA, reference compound]
[1]
  logP: 0.17

## CCCC(=O)[O][Pt]([NH2])([NH2])([Cl])([Cl])[O]C(=O)CCC [Pt(IV)diBA, cis, cis, trans-[Pt(IV)(NH3)2Cl2(BA)2]]
[2]
  Average tumor weight (mean ± SD): 0.109 ± 0.05 g
  Inhibition of tumor growth: 80%

## CCCCCC(=O)[O][Pt]([NH2])([NH2])([Cl])([Cl])[O]C(=O)CCCCC [Pt(IV)diHA, cis, cis, trans-[Pt(IV)(NH3)2Cl2(HA)2]]
[2]
  Average tumor weight (mean ± SD): 0.088 ± 0.06 g
  Inhibition of tumor growth: 84%

## Nc1ncn([C@H]2C[C@H](O)[C@@H](CO)O2)c(=O)n1 [Decitabine, 5-aza-2′-deoxycytidine, reference compound]
[3]; Homo sapiens, HCT-116
  IC50: 7500 ± 300 nM
[4]
  Change of DNA methylation: considerably lowered level of DNA methylation

## CCCCCCCC(=O)[O][Pt]([NH2])([NH2])([Cl])([Cl])[O]C(C)=O [Pt(IV)AcOA, cis, cis, trans-[Pt(IV)(NH3)2Cl2AcOA]]
[5]
  IC50: 409 ± 215 nM
[6]
  IC50: 1100 ± 200 nM
[7]
  IC50: 500 ± 40 nM
[8]
  IC50: 957 ± 19 nM
[3]
  IC50: 930 ± 20 nM
[9]
  IC50: 270 ± 100 nM
[10]; IC50 (resistant, A2780cisR)/IC50 (sensitive, A2780)
  RF, resistance factor: 1.1
[10]; MTT, 72 h, platinum complexes
  IC50: 370 ± 60 nM
[11]; A2780, 24 h
  Platinum in cytosol: 28 ± 4 pg Pt/µg protein
  Platinum in nucleus: 27 ± 4 pg Pt/µg protein
[11]; A2780, 24 h exposure
  Total cellular platinum accumulation: 4.0 ± 0.9 ng Pt/10^6 cells
[12]
  Total cellular platinum accumulation: 6.0 ± 0.9 ng Pt/10^6 cells
[13]
  Platinum content on DNA: 8.0 ± 1.4 pg Pt/µg DNA
[13]; [18]
  Platinum on DNA, % from the total intracellular Pt amount: 5.0%
[14]
  Platinum content on DNA: 19.8 ± 3.6 pg Pt/µg DNA
[14]; [18]
  Platinum on DNA, % from the total intracellular Pt amount: 4.8%
[15]
  Platinum in cytosol: 48 ± 2 pg Pt/µg protein
  Platinum in nucleus: 55 ± 7 pg Pt/µg protein
[16]
  IC50: 350 ± 50 nM
[17]
  IC50: 150 ± 3 nM
